Results taken from ChEMBL document CHEMBL6087462, “Cuminaldehyde Potentiates Antiproteolytic Peptide Efficacy via Parallel Pathways of Enhanced Inner Membrane-Damaging Activity and Inhibition of Bacterial Energy Metabolism” (J Med Chem, 2025).

Assays:
RAW264.7 = experiment: Cytotoxicity against mouse RAW264.7 cells assessed as cell death incubated for 4 hrs by MTT assay; format: toxicity, cell-based; conditions: raw264.7, 4 h
HEK-293T = experiment: Cytotoxicity against human HEK293T cells assessed as cell death incubated for 4 hrs by MTT assay; format: toxicity, cell-based
[1] = Cytotoxicity against porcine IPEC-J2 cells assessed as cell death incubated for 4 hrs by MTT assay; format: toxicity, cell-based, Sus scrofa; conditions: pig, ipec-j2, 4 h
[2] = Acute toxicity in C57BL/6 mouse assessed as lethal dose measured for 5 days; conditions: in vivo, time 5 day
[3] = Acute toxicity in C57BL/6 mouse assessed as animal survival at 80 mg/kg, po measured for 5 days; format: organism-based; conditions: in vivo, 120 h, time 5 day
[4] = Acute toxicity in C57BL/6 mouse assessed as animal survival at 40 mg/kg, po measured for 5 days; format: organism-based; conditions: in vivo, 120 h, time 5 day
[5] = Acute toxicity in C57BL/6 mouse assessed as ruffled fur at 80 mg/kg, po measured for 5 days; format: organism-based; conditions: in vivo, 120 h, time 5 day
[6] = Subacute toxicity in C57BL/6 mouse assessed as reduction in body weight loss at 125 mg/kg, po administered for 3 days; format: organism-based; conditions: in vivo, 72 h, time 3 day
[7] = Subacute toxicity in C57BL/6 mouse assessed as change in liver weight at 125 mg/kg, po administered for 3 days; format: organism-based; conditions: in vivo, 72 h, time 3 day
[8] = Subacute toxicity in C57BL/6 mouse assessed as change in kidney weight at 125 mg/kg, po administered for 3 days; format: organism-based; conditions: in vivo, 72 h, time 3 day
[9] = Subacute toxicity in C57BL/6 mouse assessed as change in spleen weight at 125 mg/kg, po administered for 3 days; format: organism-based; conditions: in vivo, 72 h, time 3 day
[10] = Subacute toxicity in C57BL/6 mouse assessed as change in BUN level at 125 mg/kg, po administered for 3 days; format: organism-based; conditions: in vivo, 72 h, time 3 day
[11] = Subacute toxicity in C57BL/6 mouse assessed as change in CREA level at 125 mg/kg, po administered for 3 days; format: organism-based; conditions: in vivo, 72 h, time 3 day
[12] = Subacute toxicity in C57BL/6 mouse assessed as change in ALT level at 125 mg/kg, po administered for 3 days; format: organism-based; conditions: in vivo, 72 h, time 3 day

CC[C@H](C)[C@H](NC(=O)[C@@H](NC(=O)[C@@H](CCCNC(=N)N)NC(=O)[C@H](C)NC(=O)[C@H](C)NC(=O)[C@@H](N)Cc1cccc2ccccc12)[C@@H](C)CC)C(=O)N[C@@H](CC(C)C)C(=O)N[C@H](CCCNC(=N)N)C(=O)N[C@@H](Cc1c[nH]c2ccccc12)C(=O)N[C@H](CCCNC(=N)N)C(=O)N[C@@H](Cc1ccccc1)C(=O)N[C@@H](CCCNC(=N)N)C(=O)O
Non-toxic: Activity [3] | Activity [4] | Activity [5] | Activity [6] | Activity [7] | Activity [8] | Activity [9] | Activity [10] | Activity [11] | Activity [12]
1010 mg/kg: LD50 at 120 h [2]
< 50%: Activity (RAW264.7) | Activity (HEK-293T) | Activity [1]
